This is an account of results in patent publication US20100216747A1, “PREVENTIVE AGENT OR THERAPEUTIC AGENT FOR DISEASE CAUSED BY ABNORMAL BONE METABOLISM” (TEIJIN PHARMA LIMITED, priority 2007, published 2010).

Like-named read-outs stand apart in the source and are kept apart here.

For test [1], the system named is osteoclast-like cells formed from mouse bone marrow-derived cells. Briefly: Formation of osteoclast-like cells (TRAP-positive multinuclear cells) from mouse bone marrow-derived cells cultured with 1α,25(OH)2D3. In kind it is cell-based. Particulars: alone or simultaneously, 7 days; for number of osteoclast-like cells formed, taking Comparative Example 1-1 as 100%: Example 1 experiment (FIG. 1): Compound A 10^−7 M; for number of osteoclast-like cells formed, taking Comparative Example 1-1 as 100% / number of osteoclast-like cells formed, taking Comparative Example 2-1 as 100%: 3 wells; for number of osteoclast-like cells formed, taking Comparative Example 2-1 as 100%: Example 2 experiment (FIG. 2): Compound A 10^−6 M; for number of osteoclast-like cells formed, taking Comparative Example 3-1 as 100%: Example 3 experiment (FIG. 3): Compound A 10^−7 M, 4 to 5 wells. From the text:
Multinuclear osteoclast-like cells were formed from mouse bone marrow-derived cells by collecting bone marrows of the femur and the tibia from a mouse, removing erythrocytes according to the ordinary method, plating the residual components in a 96-well plate at the density of 4×10^5cells/well, culturing the cells overnight, then adding a medium containing 1α,25-dihydroxy vitamin D3 (referred to as 1═,25(OH)2D3 hereinbelow) in order to be at 10^−9M, and culturing the cells in the presence of 1α,25(OH)2D3 for 7 days. An αMEM medium containing 10% fetal calf serum (referred to as 10% FCS-αMEM hereinbelow) was used as a medium. When 1α,25(OH)2D3 was added to the mouse bone marrow-derived cells, each of a solvent alone (Comparative Example 1-1), N-hydroxy-4-{5-[4-(5-isopropyl-2-methyl-1,3-thiazol-4-yl)phenoxy]pentoxy}-benzamidine (described as Compound A in Figure) alone (Comparative Example 1-2), risedronic acid alone (Comparative Example 1-3), and N-hydroxy-4-{5-[4-(5-isopropyl-2-methyl-1,3-thiazol-4-yl)phenoxy]pentoxy}-benzamidine (described as Compound A in Figure) and risedronic acid simultaneously (Example 1) were added to the mouse bone marrow-derived cell culture system, and the effects on formation of osteoclast-like cells were evaluated. The following groups were set for the experiment.
For addition of N-hydroxy-4-{5-[4-(5-isopropyl-2-methyl-1,3-thiazol-4-yl)phenoxy]pentoxy}-benzamidine (Compound A), in both the Comparative Examples and Example, N-hydroxy-4-{5-[4-(5-isopropyl-2-methyl-1,3-thiazol-4-yl)phenoxy]pentoxy}-benzamidine (Compound A) was dissolved in dimethylsulfoxide (DMSO) at a concentration of 10^−4 M, and the resultant solution was added to the medium to make 10^−7 M at a 1000-fold dilution. For addition of risedronic acid, in both the Comparative Examples and Example, sodium risedronate hydrate was dissolved in phosphate buffered saline (PBS) at a concentration of […], and the resultant solution was added to the medium to make 3×10^−7 M at a 1000-fold dilution. On the third day after addition of the test compound(s) of the respective conditions, the medium was replaced with fresh 10% FCS-αMEM containing the test compound(s) of the respective conditions in both the Comparative Examples and Example.
In both the Comparative Examples and Example, on the 7th day after the start of culture, the medium was removed, the cells were fixed with phosphate buffered formalin and stained by tartrate-resistant acid phosphatase (abbreviated as TRAP hereinbelow), an osteoclast marker, using Sigma Acid Phosphatase, Leukocyte (TRAP) kit (Sigma, No. 386A), and the number of TRAP-positive multinuclear cells having 6 or more cell nuclei was counted as osteoclast-like cells under an optical microscope.
The experiment was conducted in a similar manner to that described in Example 1, except that the concentration of N-hydroxy-4-{5-[4-(5-isopropyl-2-methyl-1,3-thiazol-4-yl)phenoxy]pentoxy}-benzamidine in the medium was set at 10^−6M, and the following groups were set.
The experiment was conducted in a similar manner to that described in Example 1, except that clodronic acid at a concentration of 10^−5 M was allowed to act on the cells in place of risedronic acid at a concentration of 3×10^−7 M in the Comparative Examples and Example, and the following groups were set.

The test system is the same in test [2]. Briefly: Bone resorption activity of osteoclast-like cells on ivory section (type I collagen cross-linked C-telopeptide in medium, ELISA). It is filed as cell-based. Particulars: Example 4 experiment: Compound A 10^−7 M, risedronic acid 10^−8 M, alone or simultaneously, 9 days on ivory section, vs Comparative Example 4-1, 3 to 4 wells. From the text:
Multinuclear osteoclast-like cells were formed from mouse bone marrow-derived cells by collecting bone marrows of the femur and the tibia from a mouse, removing erythrocytes according to the ordinary method, plating the residual components in a 96-well plate containing an ivory section at the density of 4×10^5 cells/well, culturing the cells overnight, then adding a medium containing 1α,25-dihydroxy vitamin D3 (referred to as 1α,25(OH)2D3 hereinbelow) in order to be at 10^−9 M, and culturing the cells in the presence of 1α,25(OH)2D3 for 9 days. An αMEM medium containing 10% fetal calf serum (referred to as 10% FCS-αMEM hereinbelow) was used as a medium. When 1α,25(OH)2D3 was added to the mouse bone marrow-derived cells, each of a solvent alone (Comparative Example 4-1), N-hydroxy-4-{5-[4-(5-isopropyl-2-methyl-1,3-thiazol-4-yl)phenoxy]pentoxy}-benzamidine (described as Compound A in Table 4) alone (Comparative Example 4-2), risedronic acid alone (Comparative Example 4-3), and N-hydroxy-4-{5-[4-(5-isopropyl-2-methyl-1,3-thiazol-4-yl)phenoxy]pentoxy}-benzamidine (described as Compound A in Table 4) and risedronic acid (Example 4) were simultaneously added to the mouse bone marrow-derived cell culture system, and the effects on formation of osteoclast-like cells were evaluated. The following groups were set for the experiment.
For addition of N-hydroxy-4-{5-[4-(5-isopropyl-2-methyl-1,3-thiazol-4-yl)phenoxy]pentoxy}-benzamidine (Compound A), in both the Comparative Examples and Example, N-hydroxy-4-{5-[4-(5-isopropyl-2-methyl-1,3-thiazol-4-yl)phenoxy]pentoxy}-benzamidine (Compound A) was dissolved in dimethylsulfoxide (DMSO) at a concentration of 10^−4 M, and the resultant solution was added to the medium to make 10^−7 M at a 1000-fold dilution. […]
Both in Comparative Examples and Example, the culture medium was collected 9 days after the start of culture, and the quantity of type I collagen cross-linked C-telopeptide in the medium was measured. […]
Background: ELISA stands for enzyme-linked immunosorbent assay.

Where [3] appears, read: Mus musculus, Osteoclast-like, 168 h, Example 1 experiment: Compound A 10^−7 M, risedronic acid 3×10^−7 M, vs Comparative Example 1-1, read-out: Osteoclast-like cell formation inhibition rate (%).
Where [4] appears, read: Mus musculus, Osteoclast-like, 168 h, Example 2 experiment: Compound A 10^−6 M, risedronic acid 3×10^−7 M, vs Comparative Example 2-1, read-out: Osteoclast-like cell formation inhibition rate (%).
[5] abbreviates: Mus musculus, Osteoclast-like, 168 h, Example 3 experiment: Compound A 10^−7 M, clodronic acid 10^−5 M, vs Comparative Example 3-1, read-out: Osteoclast-like cell formation inhibition rate (%).
Setting [6] is: Mus musculus, Osteoclast-like, 216 h, read-out: Bone resorption inhibitory rate (%).

Take `Cc1nc(-c2ccc(OCCCCCOc3ccc(/C(N)=N/O)cc3)cc2)c(C(C)C)s1` [Compound A, N-hydroxy-4-{5-[4-(5-isopropyl-2-methyl-1,3-thiazol-4-yl)phenoxy]pentoxy}-benzamidine]: the “number of osteoclast-like cells formed, taking Comparative Example 1-1 as 100%” value in test [1] (risedronic acid 3×10^−7 M) is listed as 81.3%. Moreover, the “number of osteoclast-like cells formed, taking Comparative Example 2-1 as 100%” value in test [1] (risedronic acid 3×10^−7 M) was 50%. In addition, in test [1] (clodronic acid 10^−5 M), the “number of osteoclast-like cells formed, taking Comparative Example 3-1 as 100%” value is given as 95.2%. For the same compound, the values for the inhibition at 0.1 µM in test [1] (setting [3]), in test [1] (setting [5]) and in test [2] (setting [6]) were 18.7%, 4.8% and 13.9%, respectively. Besides, the inhibition at 1 µM in test [1] (setting [4]) was found to be 50%.

With `O=P(O)(O)C(Cl)(Cl)P(=O)(O)O` [clodronic acid], in test [1] (clodronic acid 10^−5 M), the “number of osteoclast-like cells formed, taking Comparative Example 3-1 as 100%” value amounted to 93.9%. The inhibition at 10 µM in test [1] (setting [5]) amounted to 6.1%.

As for `O=P(O)(O)C(O)(Cc1cccnc1)P(=O)(O)O` [risedronic acid], the “number of osteoclast-like cells formed, taking Comparative Example 1-1 as 100%” value in test [1] (risedronic acid 3×10^−7 M) worked out at 88.1%. In test [1] (risedronic acid 3×10^−7 M), the “number of osteoclast-like cells formed, taking Comparative Example 2-1 as 100%” value is 88.1%. The inhibition at 0.3 µM in test [1] (setting [3]) and in test [1] (setting [4]) was 11.9% each time. Further, in test [2] (listed as Comparative Example 4-3), the “Bone resorption inhibitory rate (%)” value is 18.3%. In addition, in test [2] (setting [6]), the inhibition at 0.01 µM is 18.3%.
